Measured values taken from the supplement of paper PMC10307832.

Compound: CC(=O)c1c(C)c2cnc(Nc3ccc(N4CCNCC4)cn3)nc2n(C2CCCC2)c1=O [Palbociclib] + CS(=O)(=O)CCNCc1ccc(-c2ccc3ncnc(Nc4ccc(OCc5cccc(F)c5)c(Cl)c4)c3c2)o1 [Lapatinib] (partner 2 µM)
Experiment: relative viability (nuclei count vs DMSO), 5 days (fraction); higher = more cells survive
Summary of the method: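 Lung cancer cell lines were pin-tool dosed in 1536-well plates on the day after seeding, with either a lone drug or a fixed anchor-drug dose plus five library-drug doses (not always all listed) in √10 steps. Nuclei were counted on 4× images after 5 days. Relative viability is the ratio of treated-well to vehicle-well nuclei counts, with each value a median of duplicate plates.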

LU99A
relative viability (first compound 0.01 µM): 0.936 | relative viability (first compound 0.03162 µM): 0.539 | relative viability (first compound 0.1 µM): 0.922 | relative viability (first compound 0.3162 µM): 0.853 | relative viability (first compound 1 µM): 0.577

HCC-366
relative viability (first compound 0.01 µM): 1.06 | relative viability (first compound 0.1 µM): 0.953 | relative viability (first compound 0.3162 µM): 0.91 | relative viability (first compound 1 µM): 0.608

HOP-62
relative viability (first compound 0.01 µM): 0.77 | relative viability (first compound 0.1 µM): 0.871 | relative viability (first compound 0.3162 µM): 0.825 | relative viability (first compound 1 µM): 0.79

NCI-H1734
relative viability (first compound 0.01 µM): 1.01 | relative viability (first compound 0.03162 µM): 0.575 | relative viability (first compound 0.1 µM): 0.867 | relative viability (first compound 0.3162 µM): 0.789 | relative viability (first compound 1 µM): 0.531

NCI-H3122
relative viability (first compound 0.01 µM): 0.994 | relative viability (first compound 0.03162 µM): 0.998 | relative viability (first compound 0.1 µM): 0.911 | relative viability (first compound 0.3162 µM): 0.819 | relative viability (first compound 1 µM): 0.579

RERF-LC-KJ
relative viability (first compound 0.01 µM): 0.846 | relative viability (first compound 0.03162 µM): 0.81 | relative viability (first compound 0.1 µM): 0.817 | relative viability (first compound 0.3162 µM): 0.869 | relative viability (first compound 1 µM): 0.837

NCI-H2087
relative viability (first compound 0.01 µM): 1.08 | relative viability (first compound 0.03162 µM): 0.814 | relative viability (first compound 0.1 µM): 0.688 | relative viability (first compound 0.3162 µM): 0.649 | relative viability (first compound 1 µM): 0.442

201T
relative viability (first compound 0.01 µM): 1.06 | relative viability (first compound 0.03162 µM): 0.844 | relative viability (first compound 0.1 µM): 0.928 | relative viability (first compound 0.3162 µM): 0.94 | relative viability (first compound 1 µM): 0.692

ABC-1
relative viability (first compound 0.01 µM): 1.01 | relative viability (first compound 0.03162 µM): 1.3 | relative viability (first compound 0.1 µM): 1.26 | relative viability (first compound 0.3162 µM): 1.07 | relative viability (first compound 1 µM): 1.25

NCI-H1993
relative viability (first compound 0.01 µM): 0.841 | relative viability (first compound 0.03162 µM): 0.715 | relative viability (first compound 0.1 µM): 0.661 | relative viability (first compound 0.3162 µM): 0.624 | relative viability (first compound 1 µM): 0.658

NCI-H2085
relative viability (first compound 0.01 µM): 0.756 | relative viability (first compound 0.03162 µM): 0.7 | relative viability (first compound 0.1 µM): 0.669 | relative viability (first compound 0.3162 µM): 0.663 | relative viability (first compound 1 µM): 0.362

COR-L 105
relative viability (first compound 0.01 µM): 0.352 | relative viability (first compound 0.03162 µM): 0.281 | relative viability (first compound 0.1 µM): 0.312 | relative viability (first compound 0.3162 µM): 0.339 | relative viability (first compound 1 µM): 0.354

SK-LU-1
relative viability (first compound 0.01 µM): 1.02 | relative viability (first compound 0.03162 µM): 0.856 | relative viability (first compound 0.1 µM): 0.624 | relative viability (first compound 0.3162 µM): 0.619 | relative viability (first compound 1 µM): 0.529

PC-3 [JPC-3]
relative viability (first compound 0.01 µM): 0.436 | relative viability (first compound 0.03162 µM): 0.378 | relative viability (first compound 0.1 µM): 0.433 | relative viability (first compound 0.3162 µM): 0.415 | relative viability (first compound 1 µM): 0.344

NCI-H1563
relative viability (first compound 0.01 µM): 0.952 | relative viability (first compound 0.03162 µM): 0.852 | relative viability (first compound 0.1 µM): 0.955 | relative viability (first compound 0.3162 µM): 0.844 | relative viability (first compound 1 µM): 0.759

NCI-H2009
relative viability (first compound 0.01 µM): 0.859 | relative viability (first compound 0.03162 µM): 0.391 | relative viability (first compound 0.1 µM): 0.697 | relative viability (first compound 0.3162 µM): 0.63 | relative viability (first compound 1 µM): 0.369

NCI-H1793
relative viability (first compound 0.01 µM): 0.68 | relative viability (first compound 0.03162 µM): 0.619 | relative viability (first compound 0.1 µM): 0.462 | relative viability (first compound 0.3162 µM): 0.602 | relative viability (first compound 1 µM): 0.355

PC-14
relative viability (first compound 0.01 µM): 0.348 | relative viability (first compound 0.03162 µM): 0.343 | relative viability (first compound 0.1 µM): 0.257 | relative viability (first compound 0.3162 µM): 0.202 | relative viability (first compound 1 µM): 0.195

HCC-78
relative viability (first compound 0.01 µM): 0.914 | relative viability (first compound 0.03162 µM): 0.313 | relative viability (first compound 0.1 µM): 0.513 | relative viability (first compound 0.3162 µM): 0.685 | relative viability (first compound 1 µM): 0.198

LC-2-ad
relative viability (first compound 0.01 µM): 0.947 | relative viability (first compound 0.1 µM): 0.736 | relative viability (first compound 0.3162 µM): 0.705 | relative viability (first compound 1 µM): 0.491

NCI-H1755
relative viability (first compound 0.01 µM): 1.07 | relative viability (first compound 0.03162 µM): 0.604 | relative viability (first compound 0.1 µM): 0.929 | relative viability (first compound 0.3162 µM): 0.878 | relative viability (first compound 1 µM): 0.617

NCI-H358
relative viability (first compound 0.01 µM): 0.341 | relative viability (first compound 0.03162 µM): 0.337 | relative viability (first compound 0.1 µM): 0.214 | relative viability (first compound 0.3162 µM): 0.244 | relative viability (first compound 1 µM): 0.217

A549
relative viability (first compound 0.01 µM): 0.868 | relative viability (first compound 0.03162 µM): 0.784 | relative viability (first compound 0.1 µM): 0.615 | relative viability (first compound 0.3162 µM): 0.474 | relative viability (first compound 1 µM): 0.364

NCI-H1299
relative viability (first compound 0.01 µM): 0.952 | relative viability (first compound 0.03162 µM): 0.877 | relative viability (first compound 0.1 µM): 0.86 | relative viability (first compound 0.3162 µM): 0.809 | relative viability (first compound 1 µM): 0.642

NCI-H727
relative viability (first compound 0.01 µM): 0.777 | relative viability (first compound 0.03162 µM): 0.555 | relative viability (first compound 0.1 µM): 0.417 | relative viability (first compound 0.3162 µM): 0.386 | relative viability (first compound 1 µM): 0.436

A-427
relative viability (first compound 0.01 µM): 0.965 | relative viability (first compound 0.03162 µM): 0.735 | relative viability (first compound 0.1 µM): 1.03 | relative viability (first compound 0.3162 µM): 0.895 | relative viability (first compound 1 µM): 0.648

BEN
relative viability (first compound 0.01 µM): 0.754 | relative viability (first compound 0.03162 µM): 0.582 | relative viability (first compound 0.1 µM): 0.518 | relative viability (first compound 0.3162 µM): 0.558 | relative viability (first compound 1 µM): 0.342

Calu-6
relative viability (first compound 0.01 µM): 1.07 | relative viability (first compound 0.03162 µM): 0.897 | relative viability (first compound 0.1 µM): 0.855 | relative viability (first compound 0.3162 µM): 0.709 | relative viability (first compound 1 µM): 0.53

NCI-H596
relative viability (first compound 0.01 µM): 1.28 | relative viability (first compound 0.03162 µM): 1.07 | relative viability (first compound 0.1 µM): 0.974 | relative viability (first compound 0.3162 µM): 1.2 | relative viability (first compound 1 µM): 1.14

NCI-H23
relative viability (first compound 0.01 µM): 1 | relative viability (first compound 0.1 µM): 1.05 | relative viability (first compound 0.3162 µM): 0.804 | relative viability (first compound 1 µM): 0.589

EMC-BAC-2
relative viability (first compound 0.01 µM): 0.908 | relative viability (first compound 0.03162 µM): 0.515 | relative viability (first compound 0.1 µM): 0.793 | relative viability (first compound 0.3162 µM): 0.689 | relative viability (first compound 1 µM): 0.597

HCC-827
relative viability (first compound 0.01 µM): 0.217 | relative viability (first compound 0.03162 µM): 0.19 | relative viability (first compound 0.1 µM): 0.161 | relative viability (first compound 0.3162 µM): 0.202 | relative viability (first compound 1 µM): 0.182

NCI-H647
relative viability (first compound 0.01 µM): 1.26 | relative viability (first compound 0.03162 µM): 0.956 | relative viability (first compound 0.1 µM): 0.778 | relative viability (first compound 0.3162 µM): 0.923 | relative viability (first compound 1 µM): 0.525

NCI-H520
relative viability (first compound 0.01 µM): 0.92 | relative viability (first compound 0.03162 µM): 0.556 | relative viability (first compound 0.1 µM): 0.695 | relative viability (first compound 0.3162 µM): 0.572 | relative viability (first compound 1 µM): 0.243

EPLC-272H
relative viability (first compound 0.01 µM): 1.14 | relative viability (first compound 0.1 µM): 0.71 | relative viability (first compound 0.3162 µM): 0.603 | relative viability (first compound 1 µM): 0.718

NCI-H1792
relative viability (first compound 0.01 µM): 0.872 | relative viability (first compound 0.03162 µM): 0.728 | relative viability (first compound 0.1 µM): 0.882 | relative viability (first compound 0.3162 µM): 0.752 | relative viability (first compound 1 µM): 0.543
